Patent US20250304551A1 (SHANGHAI APEIRON THERAPEUTICS COMPANY LIMITED, priority 2022, published 2025)

Assays:
[1] = target: T1, Human KIF18A (amino acid sequence 1-417) (Homo sapiens, UniProt Q8NI77); test: Enzyme activity detection experiment (ADP-Glo, KIF18A with tubulin and ATP); type: biochemical; settings: tubulin 60 μg/mL, ATP 25 μM, KIF18A protein 2.5 nM, 120 minutes at ambient temperature, ADP-Glo chemiluminescence
T1 construct: purchased Viva Biotech (Shanghai) Ltd
Procedure: Materials: Human KIF18A (amino acid sequence 1-417) was obtained from Viva Biotech (Shanghai) Ltd., and the ADP-Glo™ protein kinase kit was acquired from Promega, USA. Tubulin was sourced from Cytoskeleton, USA, while a 384-well assay plate and the Envision multifunctional microplate reader were obtained from PerkinElmer, USA.
Enzyme activity detection: The compound powder in DMSO was firstly dissolved to prepare a 10 mM stock solution. Next, gradient dilutions were prepared in the microplate to achieve final concentrations of […]. Sequentially, 2.5 μL of tubulin (60 μg/mL), the compound, ATP (25 μM), and KIF18A protein (2.5 nM) were added to each well, and the reaction was incubated at ambient temperature for 120 minutes. After the reaction, 10 μL of ADP-Glo™ reagent was added to each well and incubated at ambient temperature for 30 minutes. Subsequently, 20 μL of detection reagent was added to each well and incubated for an additional 30 minutes in the dark. Finally, chemiluminescence detection was performed using the PerkinElmer Envision multifunctional microplate reader.

OVCAR3 cells = test: Cell proliferation activity test, OVCAR3 (CyQUANT Direct); type: cell-based; settings: Homo sapiens, OVCAR-3, 72 h, 3 days incubation, CyQUANT fluorescence detection, read-out: OVCAR-3 Cell Viability_IC50_nM
Procedure: Materials and Cells: OVCAR3 cells were purchased from Nanjing Cobioer Biosciences Co., Ltd. RPMI-1640 medium, fetal bovine serum, and the CyQUANT Direct Cell Proliferation Assay kit were purchased from Thermo Fisher Scientific, USA; 96-well cell culture plates were sourced from Corning, USA.
Cell Culture: Culture OVCAR3 cells with RPMI-1640 medium containing […] and incubate them in a […] incubator at 37° C. Only cells in the logarithmic growth phase can be used for the test.
Inoculate OVCAR3 cells into a 96-well cell culture plate at 90 μL per well and incubate overnight in a […] incubator at 37° C. Dissolve the compound powder in DMSO to prepare a stock solution of 10 mM. Then perform gradient dilution for the compounds in the microplate to achieve a final concentration of 0-10 μM. Add 10 μL of cell culture medium containing compounds to each well to make the final DMSO content 0.20%. Incubate the cell plates in a […] incubator at 37° C. for 3 days. Add 100 μL of CyQUANT detection reagent to each well, react at 37° C. for 60 min, and perform fluorescence detection using the PerkinElmer Envision.

HT29 cells = test: CyQuant cell proliferation activity test, HT29; type: cell-based; settings: Homo sapiens, HT-29, 72 h, HT29 2000 cells per well, 3 days incubation, initial concentration 3000 nM, IC50 by XLFIT, read-out: HT-29 Cell Viability_IC50_nM
Procedure: Materials and Cells: HT29 cells were purchased from Nanjing Cobioer Biosciences Co., Ltd.; RPM-1640 medium, fetal bovine serum, Trypsin-EDTA (0.25%), DMSO, 96-well plates, and CyQuant reagents were purchased from ThermoFisher (USA).
Cell Culture: Culture HT29 cells with RPMI-1640 containing 10% fetal bovine serum under the condition of 37° C. and 5% CO2. Only cells in the logarithmic growth phase can be used for the test.
Cell Proliferation Activity Test: Use the CyQuant reagent to detect the proliferation inhibitory activity of compounds on HT29 cells. Adjust the cell density and inoculate 100 μL per well into the 96-well plate (HT29 at 2000 cells per well), then incubate overnight under the condition of 37° C. and […]. Add compounds of various target concentrations (initial concentration of 3000 nM, 3-fold dilution, 9 concentration gradients), and make the DMSO content 0.20%. Incubate the cell plates at 37° C. and 5% CO2 for 3 days. Incubate with CyQuant reagent for 1 h, read the plate by Envision, and calculate IC50 using XLFIT.

T1 sequence (Q8NI77 1-417): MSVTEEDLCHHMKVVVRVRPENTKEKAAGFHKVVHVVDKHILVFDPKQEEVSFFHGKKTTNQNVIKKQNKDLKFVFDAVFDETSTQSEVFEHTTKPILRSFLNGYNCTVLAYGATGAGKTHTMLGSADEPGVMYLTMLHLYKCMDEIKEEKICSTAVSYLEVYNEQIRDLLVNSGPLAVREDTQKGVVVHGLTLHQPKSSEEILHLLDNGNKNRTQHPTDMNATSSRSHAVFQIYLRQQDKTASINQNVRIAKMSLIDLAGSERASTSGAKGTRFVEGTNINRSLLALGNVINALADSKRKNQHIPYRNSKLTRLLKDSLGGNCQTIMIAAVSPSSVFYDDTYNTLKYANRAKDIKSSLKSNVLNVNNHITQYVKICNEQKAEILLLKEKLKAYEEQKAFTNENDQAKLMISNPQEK
T1 sequence (Q2XVP4 whole entry partner): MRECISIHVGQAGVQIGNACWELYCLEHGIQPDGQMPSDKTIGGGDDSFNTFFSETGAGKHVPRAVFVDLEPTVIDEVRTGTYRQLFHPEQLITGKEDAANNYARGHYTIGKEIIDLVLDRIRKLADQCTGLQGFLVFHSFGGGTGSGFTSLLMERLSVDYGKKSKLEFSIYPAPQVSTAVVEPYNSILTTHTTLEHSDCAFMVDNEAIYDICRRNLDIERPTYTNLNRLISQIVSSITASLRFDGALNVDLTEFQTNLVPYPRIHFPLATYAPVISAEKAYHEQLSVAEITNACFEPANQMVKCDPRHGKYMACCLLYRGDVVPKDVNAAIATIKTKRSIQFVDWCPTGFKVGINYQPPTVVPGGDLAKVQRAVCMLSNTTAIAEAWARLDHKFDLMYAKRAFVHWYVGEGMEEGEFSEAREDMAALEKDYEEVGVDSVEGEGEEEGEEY
T1 sequence (P02554 whole entry partner): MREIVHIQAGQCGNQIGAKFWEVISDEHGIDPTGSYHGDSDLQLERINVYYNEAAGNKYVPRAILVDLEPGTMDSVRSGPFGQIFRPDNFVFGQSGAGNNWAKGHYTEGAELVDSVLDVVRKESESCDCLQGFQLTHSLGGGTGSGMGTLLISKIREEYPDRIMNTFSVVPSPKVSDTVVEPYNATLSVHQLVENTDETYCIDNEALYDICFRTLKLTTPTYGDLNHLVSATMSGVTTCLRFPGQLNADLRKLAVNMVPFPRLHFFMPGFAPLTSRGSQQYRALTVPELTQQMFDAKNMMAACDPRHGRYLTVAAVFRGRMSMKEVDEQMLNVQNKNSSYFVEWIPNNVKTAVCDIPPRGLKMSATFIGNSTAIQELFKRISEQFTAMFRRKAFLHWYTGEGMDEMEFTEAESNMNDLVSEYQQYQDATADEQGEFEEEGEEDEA

Row | SMILES | IC50 [1] [nM] | IC50 (OVCAR3 cells) [nM] | IC50 (HT29 cells) [nM]
1 | Cc1cc(-c2cn(-c3cnc(NS(=O)(=O)CCO)cc3N3CCC4(CC3)CC4)nn2)nc(N2CCC(F)(F)CC2)n1 [Example 67, N-(4-{6-azaspiro[2.5]octan-6-yl}-5-{4-[2-(4,4-difluoropiperidin-1-yl)-6-methylpyrimidin-4-yl]-1H-1,2,3-triazol-1-yl}pyridin-2-yl)-2-hydroxyethane-1-sulfonamide] | 12 | 25 | 19
2 | Cc1cc(-c2nnn(-c3ccc(NS(=O)(=O)CCO)cc3N3CCC4(CC3)CC4)n2)nc(N2CCC(F)(F)CC2)n1 [Example 8, N-(4-(5-(2-(4,4-difluoropiperidin-1-yl)-6-methylpyrimidin-4-yl)-2H-tetrazol-2-yl)-3-(6-azaspiro[2.5]octan-6-yl)phenyl)-2-hydroxyethane-1-sulfonamide] | 775 | 496 | 250
3 | Cc1cc(-n2cc(-c3ccc(NS(=O)(=O)[C@@H](C)CO)cc3N3CCC4(CC3)CC4)nn2)nc(N2CCC(F)(F)CC2)n1 [Example 93, (2S)—N-(3-{6-azaspiro[2.5]octan-6-yl}-4-{1-[2-(4,4-difluoropiperidin-1-yl)-6-methylpyrimidin-4-yl]-1H-1,2,3-triazol-4-yl}phenyl)-1-hydroxypropane-2-sulfonamide] | 315 | 85 | 83
4 | O=S(=O)(CCO)Nc1ccc(-c2nnc(-c3cc4cccn4c(N4CCC(F)(F)CC4)n3)o2)c(N2CCC3(CC2)CC3)c1 [Example 32] | 113 | 187 | 251
5 | O=S(=O)(CCO)Nc1ccc(C=C(F)c2cc(N3CCC(F)(F)CC3)c3ncccc3c2)c(N2CCC3(CC2)CC3)c1 [Example 1, N-(4-(2-(8-(4,4-difluoropiperidin-1-yl)quinolin-6-yl)-2-fluorovinyl)-3-(6-azaspiro[2.5]octan-6-yl)phenyl)-2-hydroxyethane-1-sulfonamide] | > 3000 | 474 | 629
6 | CN(C)c1cc(-c2cn(-c3ccc(NS(=O)(=O)CCO)cc3N3CCC4(CC3)CC4)nn2)nc(N2CCC(F)(F)CC2)n1 [Example 54, N-(3-{6-azaspiro[2.5]octan-6-yl}-4-{4-[2-(4,4-difluoropiperidin-1-yl)-6-(dimethylamino)pyrimidin-4-yl]-1H-1,2,3-triazol-1-yl}phenyl)-2-hydroxyethane-1-sulfonamide] | 277 | 84 | 73
7 | Cc1cc(-c2cn(-c3ccc(NS(=O)(=O)CCO)cc3N3CCC4(CC3)CC4)nn2)cc(N2CCC(F)(F)CC2)c1[N+](=O)[O-] [Example 78, N-(3-{6-azaspiro[2.5]octan-6-yl}-4-{4-[3-(4,4-difluoropiperidin-1-yl)-5-methyl-4-nitrophenyl]-1H-1,2,3-triazol-1-yl}phenyl)-2-hydroxyethane-1-sulfonamide] | > 3000 | > 3000 | > 3000
8 | Cc1cc(-c2cn(-c3ccc(NS(=O)(=O)CCO)cc3N3CCC4(CC3)CC4)nn2)nc(N2CCC(F)(F)CC2)n1 [Example 34, N-(4-(4-(2-(4,4-difluoropiperidin-1-yl)-6-methylpyrimidin-4-yl)-1H-1,2,3-triazol-1-yl)-3-(6-azaspiro[2.5]octan-6-yl)phenyl)-2-hydroxyethanesulfonamide] | 56 | 12 | 15
9 | O=S(=O)(CCO)Nc1ccc(-n2cc(-c3cc(NC4CCOCC4)nc(N4CCC(F)(F)CC4)n3)nn2)c(N2CCC3(CC2)CC3)c1 [Example 58, N-(3-{6-azaspiro[2,5]octan-6-yl}-4-{4-[2-(4,4-difluoropiperidin-1-yl)-6-[(oxan-4-yl)amino]pyrimidin-4-yl]-1H-1,2,3-triazol-1-yl}phenyl)-2-hydroxyethane-1-sulfonamide] | 779 | 224 | 286
10 | Cc1cc(N2CCC(F)(F)CC2)nc(-c2nnc(-c3ccc(NS(=O)(=O)CCO)cc3N3CCC4(CC3)CC4)o2)c1Cl [Example 26, N-(4-(5-(3-chloro-6-(4,4-difluoropiperidin-1-yl)-4-methylpyridin-2-yl)-1,3,4-oxadiazol-2-yl)-3-(6-azaspiro[2.5]octan-6-yl)phenyl)-2-hydroxyethane-1-sulfonamide] | 287 | 767 | 1270
11 | COc1cc(-c2nnc(-c3ccc(NS(=O)(=O)CCO)cc3N3CCC4(CC3)CC4)o2)nc(N2CCC(F)(F)CC2)n1 [Example 20, N-(4-(5-(2-(4,4-difluoropiperidin-1-yl)-6-methoxypyrimidin-4-yl)-1,3,4-oxadiazol-2-yl)-3-(6-azaspiro[2.5]octan-6-yl)phenyl)-2-hydroxyethane-1-sulfonamide] | 61 | 139 | 55
12 | Cc1cc(-n2cc(-c3ccc(NS(=O)(=O)CCO)cc3N3CCC4(CC3)CC4)nn2)cc(N2CCC(F)(F)CC2)n1 [Example 91] | 278 | 87 | 126
13 | Cc1cc(-n2cc(-c3ccc(NS(=O)(=O)CCO)cc3N3CCC4(CC3)CC4)nn2)nc(N2CCC(F)(F)CC2)n1 [Example 89, N-(4-(1-(2-(4,4-difluoropiperidin-1-yl)-6-methylpyrimidin-4-yl)-1H-1,2,3-triazol-4-yl)-3-(6-azaspiro[2.5]octan-6-yl)phenyl)-2-hydroxyethanesulfonamide] | 61 | 36 | 40
14 | COc1cc(-c2cn(-c3ccc(NS(=O)(=O)CCO)cc3N3CCC4(CC3)CC4)nn2)c(F)c(N2CCC(F)(F)CC2)n1 [Example 63, N-(4-(4-(2-(4,4-difluoropiperidin-1-yl)-3-fluoro-6-methoxypyridin-4-yl)-1H-1,2,3-triazol-1-yl)-3-(6-azaspiro[2.5]octan-6-yl)phenyl)-2-hydroxyethane-1-sulfonamide] | 437 | 108 | 153
15 | Cc1cc(-c2cn(-c3ccc(NS(=O)(=O)CCO)cc3N3CCC4(CC3)CC4)nn2)cc(-c2cnn(C)c2)n1 [Example 39, 2-hydroxy-N-(4-(4-(2-methyl-6-(1-methyl-1H-pyrazol-4-yl)pyridin-4-yl)-1H-1,2,3-triazol-1-yl)-3-(6-azaspiro[2.5]octan-6-yl)phenyl)ethane-1-sulfonamide] | 414 | 1330 | 1570
16 | Cc1cc(-c2cn(-c3ccc(NS(=O)(=O)CCO)cc3N3CCC4(CC3)CC4)nn2)nc(N2C[C@@H](C)O[C@@H](C)C2)n1 [Example 44, N-(4-(4-(2-((2R,6S)-2,6-dimethylmorpholino)-6-methylpyrimidin-4-yl)-1H-1,2,3-triazol-1-yl)-3-(6-azaspiro[2.5]octan-6-yl)phenyl)-2-hydroxyethane-1-sulfonamide] | 22 | 14 | 12
17 | COc1cc(-n2cc(-c3ccc(NS(=O)(=O)CCO)cc3N3CCC4(CC3)CC4)nn2)nc(N2CCC(F)(F)CC2)n1 [Example 90, N-(3-{6-azaspiro[2.5]octan-6-yl}-4-{1-[2-(4,4-difluoropiperidin-1-yl)-6-methoxypyrimidin-4-yl]-1H-1,2,3-triazol-4-yl}phenyl)-2-hydroxyethane-1-sulfonamide] | 16 | 44 | 62
18 | Cc1cc(-c2cn(-c3ccc(NS(=O)(=O)CCO)cc3N3CCC4(CC3)CC4)nn2)nc(C2=CCOCC2)n1 [Example 35, N-(4-(4-(2-(3,6-dihydro-2H-pyran-4-yl)-6-methylpyrimidin-4-yl)-1H-1,2,3-triazol-1-yl)-3-(6-azaspiro[2.5]octan-6-yl)phenyl)-2-hydroxyethane-1-sulfonamide] | 42 | 23 | 21
